Measured values: US20230085307A1, “PYRIDAZINONE COMPOUND AND HERBICIDE” (NISSAN CHEMICAL CORPORATION, priority 2019, published 2023)

Assays:
[1] = system: wild oat; experiment: Test Example 5: herbicidal effect by foliage application, plastic box (Table 20, symbol I); format: in vivo, wild oat (Avena fatua); conditions: foliage application, 320 g/ha, evaluated three weeks after application
In short: (§1)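 Foliar spray test: emulsion formulation diluted in water to a set application rate, sprayed onto 14-day-old plants raised in diluvial soil at 25° C to 30° C under glass. Both herbicidal effect and crop effect rated visually three weeks later.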

[2] = system: windgrass; experiment: Test Example 4: herbicidal effect by soil treatment (Table 19, symbol L); format: in vivo, windgrass (Apera spica-venti); conditions: amount of applied herbicide 320 g/ha
In short: (§2)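 Herbicidal effect was rated 3 weeks after treatment, using the scoring criteria of an earlier test. The compound, formulated as an emulsion and diluted in water to a set herbicide amount, had been sprayed uniformly on soil over freshly sown seeds. Growth took place in a greenhouse at 25° C. to 30° C.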

[3] = system: wild oat; experiment: Test Example 4: herbicidal effect by soil treatment (Table 19, symbol I); format: in vivo, wild oat (Avena fatua); conditions: amount of applied herbicide 320 g/ha
In short: as §2

[4] = system: persian speedwell; experiment: Test Example 4: herbicidal effect by soil treatment (Table 19, symbol R); format: in vivo, Persian speedwell (Veronica persica); conditions: amount of applied herbicide 320 g/ha
In short: as §2

[5] = system: southern crabgrass; experiment: Test Example 5: herbicidal effect by foliage application, plastic box (Table 20, symbol F); format: in vivo, southern crabgrass (Digitaria ciliaris); conditions: foliage application, 320 g/ha, evaluated three weeks after application
In short: as §1

[6] = system: Italian ryegrass; experiment: Test Example 5: herbicidal effect by foliage application, plastic box (Table 20, symbol K); format: in vivo, Italian ryegrass (Lolium multiflorum); conditions: foliage application, 320 g/ha, evaluated three weeks after application
In short: as §1

[7] = system: persian speedwell; experiment: Test Example 5: herbicidal effect by foliage application, plastic box (Table 20, symbol R); format: in vivo, Persian speedwell (Veronica persica); conditions: foliage application, 320 g/ha, evaluated three weeks after application
In short: as §1

[8] = system: chickweed; experiment: Test Example 5: herbicidal effect by foliage application, plastic box (Table 20, symbol P); format: in vivo, common chickweed (Stellaria media); conditions: foliage application, 320 g/ha, evaluated three weeks after application
In short: as §1

[9] = system: redroot pigweed; experiment: Test Example 4: herbicidal effect by soil treatment (Table 19, symbol N); format: in vivo, redroot pigweed (Amaranthus retroflexus); conditions: amount of applied herbicide 320 g/ha
In short: as §2

[10] = system: blackgrass; experiment: Test Example 5: herbicidal effect by foliage application, plastic box (Table 20, symbol J); format: in vivo, blackgrass (Alopecurus myosuroides); conditions: foliage application, 320 g/ha, evaluated three weeks after application
In short: as §1

[11] = system: green foxtail; experiment: Test Example 4: herbicidal effect by soil treatment (Table 19, symbol G); format: in vivo, green foxtail (Setaria viridis); conditions: amount of applied herbicide 320 g/ha
In short: as §2

[12] = system: lambsquarters; experiment: Test Example 5: herbicidal effect by foliage application, plastic box (Table 20, symbol O); format: in vivo, lambsquarters (Chenopodium album); conditions: foliage application, 320 g/ha, evaluated three weeks after application
In short: as §1

[13] = system: barnyard grass; experiment: Test Example 5: herbicidal effect by foliage application, plastic box (Table 20, symbol H); format: in vivo, barnyard grass (Echinochloa crus-galli); conditions: foliage application, 320 g/ha, evaluated three weeks after application
In short: as §1

[14] = system: redroot pigweed; experiment: Test Example 5: herbicidal effect by foliage application, plastic box (Table 20, symbol N); format: in vivo, redroot pigweed (Amaranthus retroflexus); conditions: foliage application, 320 g/ha, evaluated three weeks after application
In short: as §1

[15] = system: chickweed; experiment: Test Example 4: herbicidal effect by soil treatment (Table 19, symbol P); format: in vivo, common chickweed (Stellaria media); conditions: amount of applied herbicide 320 g/ha
In short: as §2

[16] = system: velvetleaf; experiment: Test Example 4: herbicidal effect by soil treatment (Table 19, symbol M); format: in vivo, velvetleaf (Abutilon theophrasti); conditions: amount of applied herbicide 320 g/ha
In short: as §2

[17] = system: southern crabgrass; experiment: Test Example 4: herbicidal effect by soil treatment (Table 19, symbol F); format: in vivo, southern crabgrass (Digitaria ciliaris); conditions: amount of applied herbicide 320 g/ha
In short: as §2

[18] = system: velvetleaf; experiment: Test Example 5: herbicidal effect by foliage application, plastic box (Table 20, symbol M); format: in vivo, velvetleaf (Abutilon theophrasti); conditions: foliage application, 320 g/ha, evaluated three weeks after application
In short: as §1

[19] = system: windgrass; experiment: Test Example 5: herbicidal effect by foliage application, plastic box (Table 20, symbol L); format: in vivo, windgrass (Apera spica-venti); conditions: foliage application, 320 g/ha, evaluated three weeks after application
In short: as §1

[20] = system: barnyard grass; experiment: Test Example 3: herbicidal effect by foliage application, Wagner pot (Table 18, symbol H); format: in vivo, barnyard grass (Echinochloa crus-galli); conditions: amount of applied herbicide 320 g/ha
In short: (§3)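 Plants were sown in alluvial soil held under 0.1–0.5 cm standing water and grown 14 days in a greenhouse at 25–30 °C. An emulsifiable formulation, water-diluted to the set dose, was then sprayed onto the foliage, and effects were scored three weeks later using previously defined criteria.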

[21] = system: rice flat sedge; experiment: Test Example 3: herbicidal effect by foliage application, Wagner pot (Table 18, symbol E); format: in vivo, rice flat sedge (Cyperus iria); conditions: amount of applied herbicide 320 g/ha
In short: as §3

[22] = system: barnyard grass; experiment: Test Example 4: herbicidal effect by soil treatment (Table 19, symbol H); format: in vivo, barnyard grass (Echinochloa crus-galli); conditions: amount of applied herbicide 320 g/ha
In short: as §2

[23] = system: blackgrass; experiment: Test Example 4: herbicidal effect by soil treatment (Table 19, symbol J); format: in vivo, blackgrass (Alopecurus myosuroides); conditions: amount of applied herbicide 320 g/ha
In short: as §2

[24] = system: lambsquarters; experiment: Test Example 4: herbicidal effect by soil treatment (Table 19, symbol O); format: in vivo, lambsquarters (Chenopodium album); conditions: amount of applied herbicide 320 g/ha
In short: as §2

[25] = system: Italian ryegrass; experiment: Test Example 4: herbicidal effect by soil treatment (Table 19, symbol K); format: in vivo, Italian ryegrass (Lolium multiflorum); conditions: amount of applied herbicide 320 g/ha
In short: as §2

[26] = system: Chinese sprangletop; experiment: Test Example 3: herbicidal effect by foliage application, Wagner pot (Table 18, symbol D); format: in vivo, chinese sprangletop (Leptochloa chinensis); conditions: amount of applied herbicide 320 g/ha
In short: as §3

[27] = system: green foxtail; experiment: Test Example 5: herbicidal effect by foliage application, plastic box (Table 20, symbol G); format: in vivo, green foxtail (Setaria viridis); conditions: foliage application, 320 g/ha, evaluated three weeks after application
In short: as §1

SMILES	herbicidal effect on I: wild oat (criteria 0-5) [1]	L: windgrass, herbicidal effect rating [2]	I: wild oat, herbicidal effect rating [3]	R: persian speedwell, herbicidal effect rating [4]	herbicidal effect on F: southern crabgrass (criteria 0-5) [5]	herbicidal effect on K: Italian ryegrass (criteria 0-5) [6]	herbicidal effect on R: persian speedwell (criteria 0-5) [7]	herbicidal effect on P: chickweed (criteria 0-5) [8]	N: redroot pigweed, herbicidal effect rating [9]	herbicidal effect on J: blackgrass (criteria 0-5) [10]	G: green foxtail, herbicidal effect rating [11]	herbicidal effect on O: lambsquarters (criteria 0-5) [12]	herbicidal effect on H: barnyard grass (criteria 0-5) [13]	herbicidal effect on N: redroot pigweed (criteria 0-5) [14]	P: chickweed, herbicidal effect rating [15]	M: velvetleaf, herbicidal effect rating [16]	F: southern crabgrass, herbicidal effect rating [17]	herbicidal effect on M: velvetleaf (criteria 0-5) [18]	herbicidal effect on L: windgrass (criteria 0-5) [19]	herbicidal effect on H: barnyard grass [20]	other results
COc1cc(F)ccc1-c1sc2ccc(C(C)=O)cc2c1-c1c(O)c(C)nn(C)c1=O [2-192]	0 (Herbicidal rate of 5% or less (almost no effect))	0 (Herbicidal rate of 5% or less (almost no effect))	0 (Herbicidal rate of 5% or less (almost no effect))	0 (Herbicidal rate of 5% or less (almost no effect))	4 (Herbicidal rate of 70% or more and less than 90%)	0 (Herbicidal rate of 5% or less (almost no effect))	5 (Herbicidal rate of 90% or more (almost completely withered))	5 (Herbicidal rate of 90% or more (almost completely withered))	4 (Herbicidal rate of 70% or more and less than 90%)	4 (Herbicidal rate of 70% or more and less than 90%)	3 (Herbicidal rate of 40% or more and less than 70%)	3 (Herbicidal rate of 40% or more and less than 70%)	2 (Herbicidal rate of 20% or more and less than 40%)	3 (Herbicidal rate of 40% or more and less than 70%)	0 (Herbicidal rate of 5% or less (almost no effect))	0 (Herbicidal rate of 5% or less (almost no effect))	0 (Herbicidal rate of 5% or less (almost no effect))	4 (Herbicidal rate of 70% or more and less than 90%)	0 (Herbicidal rate of 5% or less (almost no effect))	4 (Herbicidal rate of 70% or more and less than 90%)	herbicidal effect on E: rice flat sedge [21]: 2 (Herbicidal rate of 20% or more and less than 40%); H: barnyard grass, herbicidal effect rating [22]: 1 (Herbicidal rate of 5% or more and less than 20%); J: blackgrass, herbicidal effect rating [23]: 0 (Herbicidal rate of 5% or less (almost no effect)); O: lambsquarters, herbicidal effect rating [24]: 4 (Herbicidal rate of 70% or more and less than 90%); K: Italian ryegrass, herbicidal effect rating [25]: 0 (Herbicidal rate of 5% or less (almost no effect)); herbicidal effect on D: Chinese sprangletop [26]: 2 (Herbicidal rate of 20% or more and less than 40%); herbicidal effect on G: green foxtail (criteria 0-5) [27]: 4 (Herbicidal rate of 70% or more and less than 90%)
CCCC(=O)Oc1c(C)nn(C)c(=O)c1-c1c(-c2ccccc2Cl)sc2ccc(F)cc12 [2-204]	3 (Herbicidal rate of 40% or more and less than 70%)	0 (Herbicidal rate of 5% or less (almost no effect))	0 (Herbicidal rate of 5% or less (almost no effect))	3 (Herbicidal rate of 40% or more and less than 70%)	0 (Herbicidal rate of 5% or less (almost no effect))	3 (Herbicidal rate of 40% or more and less than 70%)	5 (Herbicidal rate of 90% or more (almost completely withered))	5 (Herbicidal rate of 90% or more (almost completely withered))	2 (Herbicidal rate of 20% or more and less than 40%)	0 (Herbicidal rate of 5% or less (almost no effect))	0 (Herbicidal rate of 5% or less (almost no effect))	3 (Herbicidal rate of 40% or more and less than 70%)	0 (Herbicidal rate of 5% or less (almost no effect))	5 (Herbicidal rate of 90% or more (almost completely withered))	3 (Herbicidal rate of 40% or more and less than 70%)	0 (Herbicidal rate of 5% or less (almost no effect))	0 (Herbicidal rate of 5% or less (almost no effect))	4 (Herbicidal rate of 70% or more and less than 90%)	3 (Herbicidal rate of 40% or more and less than 70%)	4 (Herbicidal rate of 70% or more and less than 90%)	herbicidal effect on E: rice flat sedge [21]: 3 (Herbicidal rate of 40% or more and less than 70%); H: barnyard grass, herbicidal effect rating [22]: 0 (Herbicidal rate of 5% or less (almost no effect)); J: blackgrass, herbicidal effect rating [23]: 0 (Herbicidal rate of 5% or less (almost no effect)); O: lambsquarters, herbicidal effect rating [24]: 0 (Herbicidal rate of 5% or less (almost no effect)); K: Italian ryegrass, herbicidal effect rating [25]: 0 (Herbicidal rate of 5% or less (almost no effect)); herbicidal effect on D: Chinese sprangletop [26]: 3 (Herbicidal rate of 40% or more and less than 70%); herbicidal effect on G: green foxtail (criteria 0-5) [27]: 5 (Herbicidal rate of 90% or more (almost completely withered))
